This note sets out measurements from ChEMBL document CHEMBL1151516, “Inhibition of HSV-1 protease by benzoxazinones” (Bioorg Med Chem Lett, 1996).

A word on the IC50: it is the concentration that gives 50% inhibition. The term half-life denotes the time needed for the level to fall by half in the phase considered.

For data set [1], the target named is T1, Capsid scaffolding protein (Herpes simplex virus (type 1 / strain 17), UniProt P10210).
T1 sequence (P10210 whole entry): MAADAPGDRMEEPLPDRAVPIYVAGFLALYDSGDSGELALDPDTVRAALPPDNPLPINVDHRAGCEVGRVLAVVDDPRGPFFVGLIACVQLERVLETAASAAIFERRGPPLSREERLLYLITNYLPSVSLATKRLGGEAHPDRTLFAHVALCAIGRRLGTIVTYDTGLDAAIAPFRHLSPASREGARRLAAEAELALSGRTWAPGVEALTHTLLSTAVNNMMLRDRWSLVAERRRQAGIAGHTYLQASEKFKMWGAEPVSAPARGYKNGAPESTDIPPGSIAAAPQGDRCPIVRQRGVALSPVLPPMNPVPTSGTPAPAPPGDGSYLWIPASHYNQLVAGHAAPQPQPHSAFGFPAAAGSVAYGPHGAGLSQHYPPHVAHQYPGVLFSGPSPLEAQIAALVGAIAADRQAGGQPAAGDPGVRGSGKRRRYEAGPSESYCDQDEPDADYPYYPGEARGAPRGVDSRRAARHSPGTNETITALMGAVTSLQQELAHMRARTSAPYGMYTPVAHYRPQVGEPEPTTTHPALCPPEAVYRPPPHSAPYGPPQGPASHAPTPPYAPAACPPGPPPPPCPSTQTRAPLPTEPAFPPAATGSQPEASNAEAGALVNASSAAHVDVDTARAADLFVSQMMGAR
As to the kind of experiment: Inhibitory activity against herpes simplex type 1 protease (HSV-1 pr).

A short description of data set [2]: Half-life in aqueous solution. In kind it is ADME.

For the compound `CC(C)Nc1nc2cc(N)ccc2c(=O)o1`, the IC50 in data set [1] turned out to be 55 µM.

For the compound `C[C@H](NC(=O)OCc1ccccc1)c1nc2cc(N)ccc2c(=O)o1`, the IC50 in data set [1] was determined as 150 µM.

Take `CCOc1nc2c(Cl)ccc(Cl)c2c(=O)o1`: the half-life in data set [2] is 1 h. The IC50 in data set [1] was 1.5 µM.

In the case of `C[C@@H](NC(=O)OCc1ccccc1)c1nc2cccc(F)c2c(=O)o1`, in data set [1], the concentration for half-maximal inhibition (IC50) was found to be 200 µM.

As for `CC(C)Nc1nc2ccccc2c(=O)o1`, the concentration for half-maximal inhibition (IC50) in data set [1] is 25 µM.

With `CCc1cccc2nc([C@H](C)NC(=O)OCc3ccccc3)oc(=O)c12`, the IC50 in data set [1] is > 300 µM.

With `CCOc1nc2ccccc2c(=O)o1`, in data set [1], the 50% inhibitory concentration (IC50) was 25 µM.

`Cc1cccc2nc([C@H](C)NC(=O)OCc3ccccc3)oc(=O)c12` had an IC50 in data set [1] of 120 µM. Against the preceding compound, the IC50 is about 4.8-fold higher.

Compound `C[C@H](NC(=O)OCc1ccccc1)c1nc2ccccc2c(=O)o1` had an IC50 in data set [1] of 50 µM.

Take `CCOc1nc2cccc(CC)c2c(=O)o1`: in data set [1], the IC50 is 20 µM.

`CC(NC(=O)OCc1ccccc1)C(=O)Nc1ccc2c(=O)oc([C@H](C)NC(=O)OCc3ccccc3)nc2c1` (stereo partly drawn) came in with an IC50 in data set [1] of 12 µM. Against the preceding compound, the IC50 is about 1.7-fold lower.

`CCOc1nc2cccc(Cl)c2c(=O)o1` had a 50% inhibitory concentration (IC50) in data set [1] of 7 µM.

On to `CC(C)Nc1nc2cc(NC(=O)C(CC(N)=O)NC(=O)OCc3ccccc3)ccc2c(=O)o1` (stereo not drawn), for which the IC50 in data set [1] was found to be 15 µM.

For the compound `COc1ccc(Oc2nc3ccccc3c(=O)o2)cc1`, the half-inhibitory concentration (IC50) in data set [1] came to 2.5 µM. This IC50 lies about 6-fold lower than the previous one.

Turning to `C[C@H](NC(=O)OCc1ccccc1)c1nc2cccc(Cl)c2c(=O)o1`, the IC50 in data set [1] was > 300 µM.

In data set [1], `CCCCNc1nc2ccccc2c(=O)o1` returned an IC50 of 300 µM.

On to `CCOc1nc2cccc(F)c2c(=O)o1`, for which the IC50 in data set [1] turned out to be 75 µM.

For the compound `CC(C)Nc1nc2cc(NC(=O)C(C)NC(=O)OCc3ccccc3)ccc2c(=O)o1` (stereo not drawn), the half-life in data set [2] is 171 h. In addition, the half-maximal inhibitory concentration (IC50) in data set [1] came to 5 µM.

In the case of `CCOc1nc2cccc(C)c2c(=O)o1`, the concentration for half-maximal inhibition (IC50) in data set [1] worked out at 15 µM.

Consider `O=c1oc(Oc2ccccc2)nc2ccccc12`, for which the half-maximal inhibitory concentration (IC50) in data set [1] is 10 µM. This IC50 is about 1.5-fold lower than that of the compound before.

Regarding `C=CCOc1nc2ccccc2c(=O)o1`, in data set [1], the IC50 amounted to 15 µM.

With `CC(Nc1nc2ccccc2c(=O)o1)c1ccccc1` (stereo not drawn), in data set [1], inhibition was half-maximal at 60 µM (IC50).

`COC(=O)C(C)Nc1nc2ccccc2c(=O)o1` (stereo not drawn) had an IC50 in data set [1] of 25 µM.

Regarding `C[C@H](NC(=O)OCc1ccccc1)c1nc2cccc(F)c2c(=O)o1`, in data set [1], the 50% inhibitory concentration (IC50) worked out at 50 µM.

The compound `CC(C)COC(=O)Nc1ccc2c(=O)oc(NC(C)C)nc2c1` displayed a half-maximal inhibitory concentration (IC50) in data set [1] of 50 µM.

As for `O=c1oc(Nc2cccc(F)c2)nc2ccccc12`, in data set [1], the half-maximal inhibitory concentration (IC50) is > 300 µM.
